From patent publication US20180064714A1 (Mylan Laboratories Ltd, priority 2015, published 2018)

What was measured:
[1] = Physical and chemical stability on storage, analysed by PXRD for polymorph integrity; assay type: physicochemical
Procedure: The Cu-anode X-ray tube was operated at 40 kV and 30 mA. The experiments were conducted over the 2θ range of 2.0°-50.0°, 0.030° step size and 0.4 seconds step time.
The Cu-anode X-ray tube was operated at 40 kV and 30 mA. The experiments were conducted over the […] of 2.0°-50.0°, 0.030° step size and 0.4 seconds step time.
As used herein, a compound or pharmaceutical composition is considered “stable” where the HPLC purity of the compound or premix changes by less than about 1% when stored at 5° C.±3° C. and/or at 25° C./60% relative humidity (RH). In certain embodiments, the “stable” compound or premix is stored at 5° C.±3° C. In other embodiments, the “stable” compound or premix is stored at 25° C./60% relative humidity (RH).

[2] = cited from earlier work

SMILES | Initial PXRD analysis ([1]; at 5° C. ± 3° C.) | Initial PXRD analysis ([1]; at 25° C./60% RH) | Initial PXRD analysis ([1]; at 40° C./75% RH) | Solubility in water [2]
CC[C@H](Nc1ncnc2nc[nH]c12)c1nc2cccc(F)c2c(=O)n1-c1ccccc1 [Amorphous Idelalisib, 5-fluoro-3-phenyl-2-[(1S)-1-(7H-purin-6-ylamino)propyl]-4(3H)-quinazolinone] | Amorphous | Amorphous | Amorphous | 
CC[C@H](Nc1ncnc2[nH]cnc12)c1nc2cccc(F)c2c(=O)n1-c1ccccc1 [Idelalisib, 5-fluoro-3-phenyl-2-[(1S)-1-(7H-purin-6-ylamino)propyl]-4(3H)-quinazolinone] |  |  |  | poorly soluble
